Measured values published in US20260217708A1, “FUSED BENZAZEPINE DERIVATIVES FOR USE IN THE TREATMENT OF CANCER AND EPILEPSY” (UCB BIOPHARMA SRL, priority 2023, published 2026).

Key:
system Xc^− [1] = biological target: T1, system Xc^− (Homo sapiens, UniProt Q9UPY5); assay: [^14C]L-Cystine uptake assay; assay type: cell-based; design: endogenous in cells; host or cells: H4 cells; details: H4 cells, sodium-free HEPES buffer, 0.5 μM L-[14C]Cystine and 4.5 μM L-Cystine, 1 hour at 37° C.; for IC50: read-out: pIC50 [^14C] L-Cystine uptake assay (converted)
T1 sequence (Q9UPY5 1-501): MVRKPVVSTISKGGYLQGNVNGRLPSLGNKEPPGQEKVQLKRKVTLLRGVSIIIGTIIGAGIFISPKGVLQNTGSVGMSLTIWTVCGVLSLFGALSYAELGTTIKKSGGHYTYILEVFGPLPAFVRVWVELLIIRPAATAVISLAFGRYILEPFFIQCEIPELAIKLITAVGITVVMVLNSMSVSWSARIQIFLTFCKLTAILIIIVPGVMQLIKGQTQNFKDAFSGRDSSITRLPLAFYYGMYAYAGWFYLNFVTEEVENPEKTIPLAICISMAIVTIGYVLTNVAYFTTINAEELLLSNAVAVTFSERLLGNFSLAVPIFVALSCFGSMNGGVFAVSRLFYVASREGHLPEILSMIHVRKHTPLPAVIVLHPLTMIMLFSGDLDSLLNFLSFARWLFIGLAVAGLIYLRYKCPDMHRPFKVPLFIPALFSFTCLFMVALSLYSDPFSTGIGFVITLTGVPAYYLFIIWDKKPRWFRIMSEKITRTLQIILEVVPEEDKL
T1 sequence (P08195 1-529 partner): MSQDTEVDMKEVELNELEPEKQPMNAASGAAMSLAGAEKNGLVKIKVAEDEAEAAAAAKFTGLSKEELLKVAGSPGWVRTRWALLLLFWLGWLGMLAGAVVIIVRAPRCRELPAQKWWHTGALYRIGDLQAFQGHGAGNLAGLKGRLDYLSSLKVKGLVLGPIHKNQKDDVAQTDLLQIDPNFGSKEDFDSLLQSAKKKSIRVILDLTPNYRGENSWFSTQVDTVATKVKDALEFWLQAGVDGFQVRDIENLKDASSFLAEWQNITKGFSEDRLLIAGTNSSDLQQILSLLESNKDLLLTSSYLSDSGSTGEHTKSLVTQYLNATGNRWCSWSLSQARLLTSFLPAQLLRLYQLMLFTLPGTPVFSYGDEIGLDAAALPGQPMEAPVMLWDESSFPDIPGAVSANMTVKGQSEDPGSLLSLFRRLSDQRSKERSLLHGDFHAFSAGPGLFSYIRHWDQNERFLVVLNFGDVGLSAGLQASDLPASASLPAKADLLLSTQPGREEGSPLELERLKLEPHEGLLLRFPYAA
Outline: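 H4 cells at 5×10^4 cells/well in sodium-free HEPES buffer were preincubated 15 min with compounds (1% DMSO). Uptake of 0.5 μM [14C]L-cystine plus 4.5 μM unlabelled L-cystine ran 1 hour at 37° C on scintillating plates. IC50 was set between 1% DMSO and 50 μM Erastin controls and expressed as pIC50.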

system Xc^− [2] = biological target: T1, system Xc^−; assay: Cystine-induced glutamate release assay; assay type: cell-based; design: endogenous in cells; host or cells: H4 cells; details: H4 cells, sodium-free HEPES buffer, 50 μM L-Cystine, 2 hours, Amplex Red glutamate readout; for IC50: read-out: pIC50 Cystine-induced glutamate release assay (converted)
Outline: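 H4 cells in sodium-free HEPES buffer (pH 7.4), 2 days after plating; glutamate release induced with 50 μM L-cystine plus compound (1% DMSO), 2 h at 37 °C. Supernatant glutamate measured by Amplex Red fluorescence; IC50/pIC50 derived between 1% DMSO and 50 μM erastin controls.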

Row | IC50 (system Xc^− [1]) [nM] | IC50 (system Xc^− [2]) [nM] | pIC50 [^14C] L-Cystine uptake assay (system Xc^− [1]) | pIC50 Cystine-induced glutamate release assay (system Xc^− [2]) | SMILES
1 | < 15.8 | < 15.8 | – | – | CC1C(=O)N(CC(=O)Nc2ccc(C(F)F)cc2)c2cc(N3CC(F)C3)nc(F)c2-c2cccnc21 (single isomer, unassigned) [#274, N-[4-(difluoromethyl)phenyl]-2-[3-fluoro-5-(3-fluoroazetidin-1-yl)-10-methyl-9-oxo-4,8,12-triazatricyclo[9.4.0.0^2,7]pentadeca-1(15),2,4,6,11,13-hexaen-8-yl]acetamide]
2 | 100 to 501 | 100 to 501 | – | – | O=C(CN1C(=O)Cc2ncccc2-c2cnc(Cl)cc21)Nc1ccc(C(F)(F)F)cc1 [#25, 2-(5-chloro-9-oxo-4,8,12-triazatricyclo[9.4.0.0^2,7]pentadeca-1(11),2(7),3,5,12,14-hexaen-8-yl)-N-[4-(trifluoromethyl)phenyl]acetamide]
3 | 15.8 to 39.8 | < 15.8 | – | – | Cc1cc2c(c(Cl)n1)-c1cccnc1C(C)C(=O)N2CC(=O)Nc1cc(F)c(Cl)cc1F (single isomer, unassigned) [#226, Enantiomer (10S) or (10R) of N-(4-chloro-2,5-difluoro-phenyl)-2-[3-chloro-5,10-dimethyl-9-oxo-4,8,12-triazatricyclo[9.4.0.0^2,7]pentadeca-1(11),2(7),3,5,12,14-hexaen-8-yl]acetamide]
4 | 100 to 501 | 100 to 501 | – | – | Cc1cc2c(cc1C)N(CC(=O)Nc1ccc(C(F)(F)F)cc1)C(=O)Cc1ccc(Cl)nc1-2 [#10, 2-(2-chloro-9,10-dimethyl-6-oxo-5H-pyrido[3,2-d][1]benzazepin-7-yl)-N-[4-(trifluoromethyl)phenyl]acetamide]
5 | < 15.8 | 15.8 to 39.8 | – | – | Cc1cc2c(c(F)n1)-c1cccnc1[C@@H](C)C(=O)N2CC(=O)Nc1ccc(Br)c(F)c1 [#158, N-(4-bromo-3-fluoro-phenyl)-2-[(10R)-3-fluoro-5,10-dimethyl-9-oxo-4,8,12-triazatricyclo[9.4.0.0^2,7]pentadeca-1(11),2(7),3,5,12,14-hexaen-8-yl]acetamide]
6 | < 15.8 | < 15.8 | – | – | CC1C(=O)N(CC(=O)Nc2ccc(C(F)F)cc2)c2cc(N3CC4(COC4)C3)nc(F)c2-c2cccnc21 (single isomer, unassigned) [#284, N-[4-(difluoromethyl)phenyl]-2-[3-fluoro-10-methyl-5-(2-oxa-6-azaspiro[3.3]heptan-6-yl)-9-oxo-4,8,12-triazatricyclo[9.4.0.0^2,7]pentadeca-1(15),2,4,6,11,13-hexaen-8-yl]acetamide]
7 | < 15.8 | 15.8 to 39.8 | – | – | [2H]C([2H])([2H])[C@H]1C(=O)N(CC(=O)Nc2ccc(C(F)(F)F)cc2)c2cc(C)nc(F)c2-c2cccnc21 (single isomer, unassigned) [#203, Enantiomer (10R) or (10S) of 2-[3-fluoro-5-methyl-9-oxo-10-(trideuteriomethyl)-4,8,12-triazatricyclo[9.4.0.0^2,7]pentadeca-1(15),2(7),3,5,11,13-hexaen-8-yl]-N-[4-(trifluoromethyl)phenyl]acetamide]
8 | 39.8 to 100 | 100 to 501 | – | – | Cc1cc2c(cc1C)N(CC(=O)Nc1ccc(Cl)c(F)c1)C(=O)Cc1cccnc1-2 [#1, N-(4-chloro-3-fluoro-phenyl)-2-(9,10-dimethyl-6-oxo-5-H-pyrido[3,2-d][1]benzazepin-7-yl)acetamide]
9 | < 15.8 | < 15.8 | – | – | Cc1cc2c(cn1)-c1ccc(F)cc1C(C)C(=O)N2CC(=O)Nc1ccc(Cl)c(F)c1 (single isomer, unassigned) [#324, N-(4-chloro-3-fluoro-phenyl)-2-[9-fluoro-3,7-dimethyl-6-oxo-7H-pyrido[3,4-a][3]benzazepin-5-yl]acetamide]
10 | < 15.8 | 15.8 to 39.8 | – | – | Cc1cc2c(c(Cl)n1)-c1cccnc1N(C)C(=O)N2CC(=O)Nc1ccc(C(F)(F)F)cc1 [#126, 2-(3-chloro-5,10-dimethyl-9-oxo-4,8,10,12-tetrazatricyclo[9.4.0.0^2,7]pentadeca-1(11),2,4,6,12,14-hexaen-8-yl)-N-[4-(trifluoromethyl)phenyl]acetamide]
11 | – | – | B (about 7.00 < pIC50 ≤ about 7.40) | C (about 7.40 < pIC50 ≤ about 7.80) | Cc1cc2c(cn1)-c1cccnc1C(C)C(=O)N2CC(=O)Nc1ccc(C(F)F)cc1 (single isomer, unassigned) [#250, Enantiomer (10S) or (10R) of N-[4-(difluoromethyl)phenyl]-2-[5,10-dimethyl-9-oxo-4,8,12-triazatricyclo[9.4.0.0^2,l]pentadeca-1(15),2,4,6,11,13-hexaen-8-yl]acetamide]
12 | < 15.8 | 15.8 to 39.8 | – | – | Cc1cc2c(c(F)n1)-c1cccnc1[C@@H](C)C(=O)N2CC(=O)Nc1ccc(Cl)c(F)c1 (single isomer, unassigned) [#200, Enantiomer (10R) or (10S) of N-(4-chloro-3-fluoro-phenyl)-2-[3-fluoro-5,10-dimethyl-9-oxo-4,8,12-triazatricyclo[9.4.0.0^2,7]pentadeca-1(11),2(7),3,5,12,14-hexaen-8-yl]acetamide]
13 | < 15.8 | 15.8 to 39.8 | – | – | COC1C(=O)N(CC(=O)Nc2ccc(C(F)(F)F)cc2)c2cc(C)nc(Cl)c2-c2ccccc21 (stereo not drawn) [#107, 2-(1-chloro-7-methoxy-3-methyl-6-oxo-7H-pyrido[3,4-a][3]benzazepin-5-yl)-N-[4-(trifluoromethyl)phenyl]acetamide]
14 | < 15.8 | < 15.8 | – | – | CC1C(=O)N(CC(=O)Nc2ccc(Cl)c(F)c2)c2cc(C(F)F)ncc2-c2cccnc21 (single isomer, unassigned) [#342, N-(4-chloro-3-fluoro-phenyl)-2-[5-(difluoromethyl)-10-methyl-9-oxo-4,8,12-triazatricyclo[9.4.0.0^2,7]pentadeca-1(15),2,4,6,11,13-hexaen-8-yl]acetamide]
15 | 15.8 to 39.8 | 39.8 to 100 | – | – | O=C(CN1C(=O)Cc2cc(F)ccc2-c2c1cc(N1CC(F)(F)C1)nc2F)Nc1ccc(C(F)F)cc1 [#296, 2-[3-(3,3-difluoroazetidin-1-yl)-1,9-difluoro-6-oxo-7H-pyrido[4,3-d][3]benzazepin-5-yl]-N-[4-(difluoromethyl)phenyl]acetamide]
16 | 15.8 to 39.8 | 100 to 501 | – | – | O=C(CN1C(=O)Cc2ncccc2-c2c1cc(Cl)nc2Cl)Nc1ccc(C(F)(F)F)cc1 [#168, 2-(3,5-dichloro-9-oxo-4,8,12-triazatricyclo[9.4.0.0^2,7]pentadeca-1(11),2(7),3,5,12,14-hexaen-8-yl)-N-[4-(trifluoromethyl)phenyl]acetamide]
17 | 100 to 501 | 39.8 to 100 | – | – | Cc1cc2c(c(F)n1)-c1cccnc1[C@@H](C)C(=O)N2CC(=O)Nc1ccc(Cl)c(F)c1F [#249, N-(4-chloro-2,3-difluoro-phenyl)-2-[(10R)-3-fluoro-5,10-dimethyl-9-oxo-4,8,12-triazatricyclo[9.4.0.0^2,7]pentadeca-1(15),2,4,6,11,13-hexaen-8-yl]acetamide]
18 | 15.8 to 39.8 | 39.8 to 100 | – | – | Cc1cc2c(c(F)n1)-c1cccnc1[C@@H](C)C(=O)N2CC(=O)Nc1ccc(Cl)c(Cl)c1 [#150, N-(3,4-dichlorophenyl)-2-[(10R)-3-fluoro-5,10-dimethyl-9-oxo-4,8,12-triazatricyclo[9.4.0.0^2,7]pentadeca-1(11),2(7),3,5,12,14-hexaen-8-yl]acetamide]
